Laboratory results published in article doi:10.1101/2025.08.06.668955, “High-Affinity, Structure-Validated and Selective Macrocyclic Peptide Tools for Chemical Biology Studies of Huntingtin” (bioRxiv, 2025).
Where a SMILES comes first, the peptide text is derived from it. Bridges are numbered along the chain shown (N, C = ends). Primed or numbered codes have the meaning given here. Where no end group is shown, it is not given here. [ ]: non-standard residue; d: D form. FITC′ = not defined here

Key:
HTTQ23-HAP40 = molecular target: T1, HTTQ23-HAP40 (Homo sapiens, UniProt P23610+P42858, INS38QQ); experiment: Thermal shift assay (DSF), HTTQ23-HAP40; type: binding; conditions: SYPRO Orange, 0.25 mg/mL protein, macrocycle up to 10 μM, 2.5% DMSO, n=3
T1 construct: Full-length wildtype HTT with a polyQ tract of 23 glutamines; FLAG; made in house; host or cells: Sf9 insect cells (baculovirus)
Procedure: In an Axygen® 384-well PCR microplate (REF# PCR-384-LC480-W-NF, Corning), samples were mixed to yield a final concentration of 0.25 mg/mL Q54 or Q23/HAP40, a 5-pt 2-fold serial dilution of each macrocycle (top concentration of 10 μM, 2.5% DMSO), and 5X SYPRO™ Orange (CAT# S6650, Thermo Fisher Scientific) in buffer (20 mM HEPES pH 7.4, 150 mM NaCl, 1 mM TCEP, 0.005% Tween-20). Differential Scanning Fluorimetry (DSF) was performed using a LightCycler® 480 (Roche LifeSciences) set to a 4 °C/min temperature ramp (20–95 °C) and fluorescence detection at 580 nm. Melting temperatures (Tm) were obtained from the minima of the negative derivative of each curve. The propagated error of the thermal shift (ΔTm) was calculated from the standard deviation of each Tm mean (n=3). To ensure a maximally macrocycle-bound fraction (KD ~10 nM; ~100% bound) at 0.25 mg/mL HTT or HTT-HAP40 (~0.7 μM), the upper limit of macrocycle tested was 10 μM.
98 Supplementary Figure. 10. Thermal shift (ΔTm) induced by macrocycle binding. Melting
99 temperature of HTTQ54 (left) with HL5 or HL2 minus HTTQ54 with DMSO (46.5 °C), and (right)
100 HTTQ23-HAP40 with HD4, HL2, HL5, HHD2, HHD3, or HHL1 minus HTTQ23-HAP40 with DMSO
101 (51.0 °C). ΔTm significance was determined using an unpaired t-test with Welch correction,
102 comparing to the mean Tm of Q54 or Q23-HAP40 with DMSO; *P < 0.05, **P < 0.01, ***P <
103 0.001. The summary table reports the ΔTm and exact P value at the highest concentration tested
(1 picture or pasted object on this page, not shown here)

HAP40 = experiment: Macrocycle precipitation (MP), co-purification of HAP40, LC-MS/MS; type: binding, human; conditions: HEK293T lysate versus HTT CRISPR knockout line
Source text: To assess macrocycle selectivity and identify potential HTT interacting proteins, we performed LC-MS/MS analysis of the proteins in the MP eluates. To control for non-specific binding, we performed MPs using lysates from a HTT CRISPR knockout cell line ([Jung et al., 2021]). Across all macrocycles, HTT emerged as the most enriched protein after background subtraction (Figure 5b). Given we performed affinity purification using macrocycles targeting distinct HTT surfaces, we hypothesized that any real HTT protein binder might be co-purified with two or more macrocycles. […] In contrast, HAP40 was not enriched by HL5, consistent with its specificity for apo HTT.
(§1) Macrocycles were pre-conjugated to streptavidin beads (Cytiva, 17-5113-01) by incubating with a 30 μL slurry of beads per macrocycle purification (MP) in Lysis Buffer (10 mM Tris-HCl, pH 7.9, 150 mM NaCl, 0.1% NP-40, 1:500 protease inhibitor cocktail (Sigma-Aldrich), 1:1,000 benzonase nuclease, and 2 mM MgCl2) for 1 hour at 4°C. A concentration of 1.25 μM macrocycle was used for conjugation. After incubation, beads were washed three times with 500 μL Lysis Buffer to remove unbound macrocycles and resuspended in 500 μL of lysate at 4 mg/mL protein concentration.
(§2) Cells were harvested by centrifugation at 1,500 rpm for 5 minutes, washed twice with PBS, and snap-frozen. Cell pellets were then resuspended in 500 μL of Lysis Buffer (as described above) and incubated on an end-over-end rotator at 4°C for 1 hour. Lysates were clarified by centrifugation at 20,000g for 15 minutes at 4°C, and the supernatant was transferred to fresh 1.5 mL Eppendorf tubes. Protein concentration was determined by BCA assay (Thermo Fisher Scientific, 23225), yielding approximately 4 mg of protein on average. Lysates were diluted to a final concentration of 4 mg/mL for use, providing […] of total protein per MP.
(§3) Macrocycle-conjugated beads were incubated with 2 mg of lysate in Lysis Buffer for 1 hour at 4°C with rotation. After incubation, beads were collected by centrifugation at 3,000 rpm, and the flow-through was saved for analysis. Beads were then washed sequentially with 1 mL of Wash Buffer 1 (10 mM Tris-HCl, pH 7.9, 100 mM NaCl, 0.1% NP-40) and twice with Wash Buffer 2 (Wash Buffer 1 without detergent). Lastly, bound proteins were eluted from the beads with 200 μL of 0.5 M NH4OH and flash-frozen in liquid nitrogen.
All sample preparation, LC MS/MS data collection, and MS data searches were carried out at the SPARC BioCentre at The Hospital for Sick Children (Toronto, ON, Canada). […] Samples were analyzed by liquid chromatography tandem mass spectrometry (LC-MS/MS) using an EASY-nanoLC 1200 system with a 1 h analysis and an Orbitrap Fusion™ Lumos™ Tribrid™ Mass Spectrometer (Thermo Fisher Scientific). […]

endogenous HTT = experiment: Macrocycle precipitation (MP) of endogenous HTT from HEK293T cell extracts; type: binding, human; conditions: HEK293 cell lysate, 2 mg protein, streptavidin beads conjugated at 1.25 μM macrocycle, 1 hour at 4°C
Procedure: To explore binding and selectivity within a more physiological context, we used biotinylated derivatives of macrocycles to affinity purify HTT from cellular extracts, which we term “macrocycle precipitations” (MPs)(Figure 5a). The macrocycles were joined to the biotin using either a 2 amino acid linker (AK-Bio) or a PEG11 spacer (PEG11-Bio) (Supplementary Figure 12a). Extracts were prepared from HEK293T cells, including HTT knock-out lines and streptavidin beads were used to attempt to capture macrocycle–HTT complexes, and potentially associated binding partners.
as §1, §2, §3
All sample preparation, LC MS/MS data collection, and MS data searches were carried out at the SPARC BioCentre at The Hospital for Sick Children (Toronto, ON, Canada). Samples were reduced with DTT (10 mM, 60°C, 1 hour), alkylated with iodoacetamide (20 mM, room temperature, 45 min, dark), and digested overnight at 37°C with trypsin ([…]; Pierce). Peptides were dried by vacuum centrifugation, desalted on C18 ziptips (Millipore) using a DigestPro MSi (Intavis Bioanalytical Instruments), and dried again by vacuum centrifugation before resuspension in Buffer A (0.1% formic acid (v/v) in water). Samples were analyzed by liquid chromatography tandem mass spectrometry (LC-MS/MS) using an EASY-nanoLC 1200 system with a 1 h analysis and an Orbitrap Fusion™ Lumos™ Tribrid™ Mass Spectrometer (Thermo Fisher Scientific). The LC portion of the analysis consisted of a 18 min linear gradient running 3–20% of Buffer A to Buffer B (0.1% formic acid (v/v) in […]), followed by a 31 min linear gradient running 20–35% of Buffer A to Buffer B, a 2 min ramp to 100% Buffer B and 9 min hold at 100% Buffer B, all at a flow rate of 250 nL/min. Samples were loaded into a […] × 2 cm Acclaim PepMap 100 Pre-column followed by a 75 μm × 50 cm PepMax RSLC EASY-Spray analytical column filled with […] C18 beads (Thermo Fisher Scientific). MS1 acquisition resolution was set to 120000 with an automatic gain control (AGC) target value of 4 × 105 and maximum ion injection time (IT) of 50 ms for a scan range of m/z 375–1500, with dynamic exclusion set to 10 s. Isolation for MS2 scans was performed in the quadrupole with an isolation window of m/z 0.7. […]

[1] = molecular target: C-terminally biotinylated HTTQ23 in complex with HAP40 (UniProt P23610 1-371, biotin on the C-terminal Avi-tag); experiment: SPR
HTTQ54-HAP40 = HTTQ54-HAP40 (UniProt P23610 1-371); experiment: FP
Sequence of HTTQ54-HAP40 (P42858 other isoform, or with tags, fused parts or gaps, chain 1 of 2): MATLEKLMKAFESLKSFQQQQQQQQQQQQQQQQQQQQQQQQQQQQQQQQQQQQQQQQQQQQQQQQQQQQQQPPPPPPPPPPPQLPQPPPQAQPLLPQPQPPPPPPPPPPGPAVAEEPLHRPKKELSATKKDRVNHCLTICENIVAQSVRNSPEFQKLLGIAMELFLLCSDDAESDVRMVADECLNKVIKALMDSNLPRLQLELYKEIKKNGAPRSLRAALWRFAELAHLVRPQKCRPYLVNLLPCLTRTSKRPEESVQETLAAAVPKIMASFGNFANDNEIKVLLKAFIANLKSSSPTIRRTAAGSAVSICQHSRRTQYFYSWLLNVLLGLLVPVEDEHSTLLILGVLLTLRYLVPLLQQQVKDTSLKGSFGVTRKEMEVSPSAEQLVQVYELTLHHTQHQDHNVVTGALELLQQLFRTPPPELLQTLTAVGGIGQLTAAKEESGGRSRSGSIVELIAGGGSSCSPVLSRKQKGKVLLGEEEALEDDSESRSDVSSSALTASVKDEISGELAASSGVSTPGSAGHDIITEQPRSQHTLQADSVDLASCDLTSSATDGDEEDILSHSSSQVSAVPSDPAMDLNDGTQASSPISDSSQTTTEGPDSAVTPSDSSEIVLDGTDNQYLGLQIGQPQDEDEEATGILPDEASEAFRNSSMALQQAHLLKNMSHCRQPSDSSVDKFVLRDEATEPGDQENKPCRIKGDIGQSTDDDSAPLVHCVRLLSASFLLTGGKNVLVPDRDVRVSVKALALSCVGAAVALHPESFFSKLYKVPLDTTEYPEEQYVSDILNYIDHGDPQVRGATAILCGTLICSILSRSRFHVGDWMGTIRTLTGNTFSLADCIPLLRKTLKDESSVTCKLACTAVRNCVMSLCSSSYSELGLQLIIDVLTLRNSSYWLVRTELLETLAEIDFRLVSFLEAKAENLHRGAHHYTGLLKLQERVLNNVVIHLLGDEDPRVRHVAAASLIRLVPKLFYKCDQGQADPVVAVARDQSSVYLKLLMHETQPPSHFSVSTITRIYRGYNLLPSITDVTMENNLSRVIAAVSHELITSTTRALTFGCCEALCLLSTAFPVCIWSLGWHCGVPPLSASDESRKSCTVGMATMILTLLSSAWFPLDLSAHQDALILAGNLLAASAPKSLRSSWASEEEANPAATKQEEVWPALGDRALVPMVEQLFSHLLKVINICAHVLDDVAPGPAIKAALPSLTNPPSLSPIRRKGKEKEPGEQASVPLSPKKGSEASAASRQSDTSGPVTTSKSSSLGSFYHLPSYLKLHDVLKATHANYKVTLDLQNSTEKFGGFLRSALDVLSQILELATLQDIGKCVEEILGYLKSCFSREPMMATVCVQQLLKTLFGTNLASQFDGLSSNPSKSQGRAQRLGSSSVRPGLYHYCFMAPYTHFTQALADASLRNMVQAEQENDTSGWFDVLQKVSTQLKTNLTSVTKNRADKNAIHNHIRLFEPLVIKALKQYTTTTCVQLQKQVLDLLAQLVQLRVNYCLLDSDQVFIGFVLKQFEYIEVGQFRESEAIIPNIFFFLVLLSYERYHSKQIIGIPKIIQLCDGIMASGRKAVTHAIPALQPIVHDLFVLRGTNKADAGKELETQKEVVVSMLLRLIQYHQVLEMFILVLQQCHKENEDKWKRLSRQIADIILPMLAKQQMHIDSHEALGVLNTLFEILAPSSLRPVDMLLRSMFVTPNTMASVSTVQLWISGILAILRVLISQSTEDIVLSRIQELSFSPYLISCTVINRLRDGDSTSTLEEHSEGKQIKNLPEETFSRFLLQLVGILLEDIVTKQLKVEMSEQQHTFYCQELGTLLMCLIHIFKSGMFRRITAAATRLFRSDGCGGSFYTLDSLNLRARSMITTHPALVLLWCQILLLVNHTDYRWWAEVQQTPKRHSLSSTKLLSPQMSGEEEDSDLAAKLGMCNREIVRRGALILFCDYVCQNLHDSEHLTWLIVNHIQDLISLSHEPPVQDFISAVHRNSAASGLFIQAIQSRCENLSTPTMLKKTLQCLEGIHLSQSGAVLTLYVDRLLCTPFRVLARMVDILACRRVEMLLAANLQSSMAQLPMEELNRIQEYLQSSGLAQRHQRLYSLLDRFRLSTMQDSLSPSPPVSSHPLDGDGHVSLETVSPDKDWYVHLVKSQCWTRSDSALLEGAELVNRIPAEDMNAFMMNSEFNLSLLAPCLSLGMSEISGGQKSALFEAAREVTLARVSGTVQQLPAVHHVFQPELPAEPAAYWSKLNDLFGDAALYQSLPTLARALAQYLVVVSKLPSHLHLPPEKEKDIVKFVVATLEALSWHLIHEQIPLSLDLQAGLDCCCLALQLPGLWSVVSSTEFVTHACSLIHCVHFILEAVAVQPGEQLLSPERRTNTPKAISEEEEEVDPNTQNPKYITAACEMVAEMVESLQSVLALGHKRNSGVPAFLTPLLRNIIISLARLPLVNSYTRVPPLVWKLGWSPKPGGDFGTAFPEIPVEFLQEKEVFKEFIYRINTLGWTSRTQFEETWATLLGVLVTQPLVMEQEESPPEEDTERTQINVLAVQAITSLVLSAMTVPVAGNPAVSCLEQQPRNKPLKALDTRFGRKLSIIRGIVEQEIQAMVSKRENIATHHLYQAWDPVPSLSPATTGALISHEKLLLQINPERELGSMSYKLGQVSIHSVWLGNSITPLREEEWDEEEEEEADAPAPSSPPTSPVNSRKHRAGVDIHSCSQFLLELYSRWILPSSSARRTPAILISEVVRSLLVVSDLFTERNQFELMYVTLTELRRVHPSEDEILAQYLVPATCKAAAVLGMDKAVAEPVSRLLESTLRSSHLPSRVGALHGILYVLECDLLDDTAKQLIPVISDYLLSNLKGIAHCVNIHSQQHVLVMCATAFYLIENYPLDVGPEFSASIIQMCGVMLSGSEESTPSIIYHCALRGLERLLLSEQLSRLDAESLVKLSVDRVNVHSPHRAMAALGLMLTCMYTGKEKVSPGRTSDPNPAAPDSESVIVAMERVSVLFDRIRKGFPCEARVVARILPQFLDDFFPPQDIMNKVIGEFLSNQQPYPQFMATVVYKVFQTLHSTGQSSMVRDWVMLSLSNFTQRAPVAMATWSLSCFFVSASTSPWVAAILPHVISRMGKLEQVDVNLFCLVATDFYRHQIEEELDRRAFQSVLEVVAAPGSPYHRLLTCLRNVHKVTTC
Sequence of HTTQ54-HAP40 (P23610 whole entry, chain 2 of 2): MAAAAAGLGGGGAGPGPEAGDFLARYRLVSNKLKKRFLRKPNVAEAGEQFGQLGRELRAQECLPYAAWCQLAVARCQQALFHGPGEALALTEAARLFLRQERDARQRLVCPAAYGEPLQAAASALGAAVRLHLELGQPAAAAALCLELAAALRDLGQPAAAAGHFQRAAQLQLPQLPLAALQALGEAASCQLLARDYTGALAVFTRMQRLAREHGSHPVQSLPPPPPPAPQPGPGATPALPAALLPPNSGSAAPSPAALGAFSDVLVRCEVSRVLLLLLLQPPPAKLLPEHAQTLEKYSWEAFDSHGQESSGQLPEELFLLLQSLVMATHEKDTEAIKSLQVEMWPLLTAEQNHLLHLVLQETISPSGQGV

Row | Molecule | Capture of endogenous HTT by immobilized biotinylated macrocycle (endogenous HTT) | other results
1 | CC[C@H](C)[C@H](NC(=O)CNC(=O)[C@@H](NC(=O)[C@H](CCC(N)=O)NC(=O)[C@H](CCCCN)NC(=O)[C@H](CC(N)=O)NC(=O)[C@@H](NC(=O)[C@H](CCC(=O)O)NC(=O)[C@@H]1CSCC(=O)N[C@H](Cc2ccc(O)cc2)C(=O)N[C@@H](CC(=O)O)C(=O)N[C@@H]([C@@H](C)CC)C(=O)N[C@@H](Cc2c[nH]c3ccccc23)C(=O)N1)[C@@H](C)O)[C@@H](C)O)C(=O)N[C@@H](CC(C)C)C(=O)N[C@H](C(=O)N[C@@H](CC(C)C)C(=O)N[C@@H](CS)C(N)=O)C(C)C [HD4] ({CH2CO}-[dY]DIWCETNKQTGILVLC-NH2; thioether N-5) |  | Thermal shift (ΔTm) of HTTQ23-HAP40 induced by macrocycle (HTTQ23-HAP40): No significant thermal effects; Enrichment of HAP40 in macrocycle pulldowns (HAP40): consistently enriched
2 | HHL1-PEG11-Bio: biotinylated derivative of HHL1 with a PEG11 spacer ({CH2CO}-YLIRSSFNWFVFVEVPC; thioether N-17 (inferred); also: biotin joined via PEG11 spacer) | no detectable binding | 
3 | HD4-AK-Bio: biotinylated derivative of HD4 with a 2 amino acid linker (AK-Bio) (Ac-[dY]DIWCETNKQTGILVLCAK; thioether (positions not given here); also: thioether to downstream Cys, which of Cys5/Cys17 not given here, biotin joined via AK linker, site not given here) | captured | 
4 | HL2-PEG11-Bio: biotinylated derivative of HL2 with a PEG11 spacer ({CH2CO}-YTARYLTLGTLHYKC; thioether N-15 (inferred); also: biotin joined via PEG11 spacer) | captured | 
5 | HL5-PEG11-Bio: biotinylated derivative of HL5 with a PEG11 spacer ({CH2CO}-YTHFQVAPWIQSLC; thioether N-14 (inferred); also: biotin joined via PEG11 spacer) | captured | 
6 | HHL1-AK-Bio: biotinylated derivative of HHL1 with a 2 amino acid linker (AK-Bio) ({CH2CO}-YLIRSSFNWFVFVEVPCAK; thioether N-17 (inferred); also: biotin joined via 2 amino acid linker AK) | no detectable binding | 
7 | HHD3-AK-Bio: biotinylated derivative of HHD3 with a 2 amino acid linker (AK-Bio) ({CH2CO}-[dY]TRHWQNNWWILYHEFCAK; thioether N-17 (inferred); also: biotin joined via AK linker, site not given here) | captured | 
8 | {CH2CO}-YTARYLTLGTLHYKC (thioether N-15 (inferred)) [HL2] |  | Kd [1]: 2 nM
9 | {CH2CO}-YLIRSSFNWFVFVEVPC-{FITC′} (thioether N-17 (inferred); not fully specified) [FITC-labeled HHL1] |  | Kd (HTTQ54-HAP40): 2.6 nM
10 | {CH2CO}-YTARYLTLGTLHYKC-{FITC′} (thioether N-15 (inferred); not fully specified) [FITC-labeled HL2] |  | Kd (HTTQ54-HAP40): 4 nM
11 | {CH2CO}-[dY]TRHWQNNWWILYHEFC-{FITC′} (thioether N-17 (inferred); not fully specified) [FITC-labeled HHD3] |  | Kd (HTTQ54-HAP40): 2.6 nM
